Test results published in US20180296532A1, “RNA-Focused Small Molecules for Inhibiting RNA Toxicity in Myotonic Dystrophy” (The Scripps Research Institute, priority 2015, published 2018).

Tests used:
DMPK mRNA = assay: Effect of 2GN8 on DMPK mRNA abundance in DM1 patient derived fibroblasts by qRT-PCR; format: cell-based; settings: patient derived fibroblasts with 500 CUG repeats; bioactive concentrations
Experimental: Evaluation of the effect of 2GN8 on the abundance of DMPK mRNA was assessed using patient derived fibroblasts with 500 CUG repeats.
The effect of 2GN8 on the abundance of DMPK mRNA was assessed using DM1 patient derived fibroblasts containing 500 CTG repeats (GM03987). Cells were grown as monolayers in 6 well plates in growth medium (1×EMEM (Lonza), 10% FBS, 1× glutagro (Corning), 1×MEM non-essential amino acids (Corning) and 1× antibiotic/antimycotic (Corning)). Once cells were ˜80% confluent, they were treated with growth medium containing the 2GN8 (300, 200 and 100 μM). After 48 h the cells were lysed and the total RNA was harvested using Trizol reagent (Life Technologies). Approximately 100 ng of RNA was used for RT qScript cDNA synthesis kit (Quanta BioSciences). 30% of the RT reaction was used for real time PCR (qPCR) with SYBR green master mix (Life Technologies) performed on a 7900HT Fast Real-Time PCR System (Applied Biosystems). The PCR primers for DMPK mRNA were 5′-CGTGCAAGCGCCCAG (forward) and 5′-[…] (reverse). The PCR primers for 18S ribosomal RNA were 5′-[…] (forward) and 5′-[…] (reverse).

HSA^LR mice = assay: Pre-mRNA splicing defects in HSA^LR mouse model of DM1; format: in vivo; settings: 40 mg/kg/day intraperitoneally for 18 days
Source text: A mouse model of DM1 has been reported in which 250 rCUG repeats are expressed using an actin promoter (human skeletal actin long repeat, HSA^LR).^24 The presence of these repeats results in dysregulation of alternative splicing in the muscle-specific chloride ion channel (Clcn1) and the sarcoplasmic/endoplasmic reticulum calcium ATPase 1 (Serca1/Atp2a1) pre-mRNAs. Clcn1 exon 7a is excluded ˜100% in mRNA from normal adult mice: DM1 mice have an exclusion rate of ˜50% (FIG. 12A).
All experimental procedures, mouse handling, and husbandry were completed in accordance with the Association for Assessment and Accreditation of Laboratory Animal Care. A mouse model for DM1(67). HSALR in line 20b, was used. HSALR mice express human skeletal actin RNA with 250 CUG repeats in the 3′ UTR. Age- and gender-matched HSALR mice were injected intraperitoneally with either 40 mg/kg 2GN8 in water for treatment and 0.9% NaCl for control once per day for 18 days. Mice were sacrificed one day after the last injection, and the vastus muscle was obtained. RNA was extracted from the vastus tissue, and cDNA was synthesized as previously described.

r(CUG)12-MBNL1 complex = assay: TR-FRET assay, disruption of the r(CUG)12-MBNL1 complex; format: biochemical
Source text: DM1 is caused by an RNA gain-of-function mechanism in which r(CUG)^exp binds and inactivates proteins involved RNA biogenesis.^(25-29) One protein, muscleblind-like 1 (MBNL1), regulates the alternative splicing of a sub-set of RNAs that are de-regulated in DM1.^(27, 43-45) We discovered that Formula (I) compounds disrupt the r(CUG)12-MBNL1 complex in vitro as determined by a previously described time-resolved fluorescence resonance energy transfer (TR-FRET) assay (FIG. 1A).^(46)
The in vitro activity of library compounds was assessed by disruption of the r(CUG)12-MBNL1 complex using a previously reported TR-FRET assay.^(32, 46) Biotinylated RNA was folded at 60° C. in 1× Folding Buffer (20 mM HEPES, pH 7.5, […], and 10 mM NaCl) and slowly cooled to room temperature. The buffer was then adjusted to 1× Assay Buffer (1× Folding Buffer supplemented with 2 mM MgCl2, 2 mM CaCl2, 5 mM DTT, 0.1% BSA, 0.05% Tween-20) and MBNL1-His6 was added. The final concentrations of RNA and MBNL1-His6 were 80 nM and 62 nM, respectively. After incubation at room temperature for 15 min, 8 μL aliquots were then dispensed into each well of low volume, 384-well plates using a flying reagent dispenser. […] Plates were incubated at room temperature for 1 h, and then TR-FRET was measured using a Molecular Devices SpectraMax M5 plate reader using an excitation wavelength of 345 nm and a 420 nm cutoff. Fluorescence was measured at 545 and 665 nm. Library compounds were screened for potential intrinsic fluorescence under screening conditions. No library compounds were fluorescent at 665 nm and two non-hit compounds have low fluorescence at 545 nm.
To calculate the percent inhibition of complex formation, the ratio of fluorescence intensity at 545 nm and 665 nm in the presence of compound was compared to the ratio in the absence of small molecule (100% r(CUG)12-MBNL1 complex formation) and in the absence of RNA and protein (no complex formation). […]

Compound: N=C(N)Nc1ccc2nc(-c3ccc(-c4nc5ccc(NC(=N)N)cc5[nH]4)cc3)[nH]c2c1 [Compound 2GN8]
- effect on abundance of DMPK mRNA (DMPK mRNA): did not have any effect
- Clcn1 pre-mRNA splicing defects (HSA^LR mice): improved to nearly wild type levels
- Serca1 pre-mRNA splicing defects (HSA^LR mice): improved to nearly wild type levels
- IC50 (r(CUG)12-MBNL1 complex): 39 ± 4 µM
- enhancement in potency of 2GN8 over precursor compound 27 (r(CUG)12-MBNL1 complex; ratio of TR-FRET IC50 values): roughly 14 fold
